Laboratory results from US10703733B2, “MCL-1 inhibitors” (Gilead Sciences, Inc., priority 2018, dated 2020).
Read-outs that look alike come from different tables or passages of the source.

How the values were obtained:
[1] = molecular target: MCL-1/Bim interaction (recombinant human MCL-1 protein, residues 171-327; biotinylated human Bim peptide, residues 51-76) (Homo sapiens (Human), UniProt Q07820); experiment: MCL-1/Bim Binding AlphaLISA Assay; conditions: 0.0625 nM 6xHis-Mcl-1 (171-327), 0.0625 nM biotinylated-Bim peptide
How it was run: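 Compounds first sat 1 h with MCL-1 (171-327, 0.0625 nM), followed by 2 h with biotin-Bim 51-76 (0.0625 nM), then sequential 1 h anti-His acceptor and streptavidin donor bead steps; buffer Hepes pH 7.5 with NaCl, Brij 35, DTT, BSA. AlphaScreen signal converted to % inhibition using DMSO (negative) and protein/peptide-free (positive) controls.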

SKBR3 cells = experiment: SKBR3 Cell Viability Assay (CellTiter Glo); assay type: cell-based; conditions: CellTiter Glo luminescence, read-out: MCL-1 CV SKBR3 EC50
How it was run: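 Viability read as CellTiter Glo luminescence after 72 h of compound exposure at 37° C./5% CO2, using 6,000 SKBR3 cells per well in McCoy 5A with 10% FBS. Percent inhibition scaled between DMSO wells and 10 μM puromycin wells.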

Chain of MCL-1/Bim interaction (recombinant human MCL-1 protein, residues 171-327; biotinylated human Bim peptide, residues 51-76) (Q07820 171-327): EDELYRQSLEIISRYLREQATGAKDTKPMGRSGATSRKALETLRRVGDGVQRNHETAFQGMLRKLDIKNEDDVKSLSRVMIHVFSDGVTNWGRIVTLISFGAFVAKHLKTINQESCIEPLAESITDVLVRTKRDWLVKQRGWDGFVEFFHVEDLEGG

| Structure (SMILES) | IC50 [1] [nM] | EC50 (SKBR3 cells; 72 hours) [nM] | EC50 (SKBR3 cells; Homo sapiens, SK-BR-3, 72 h) [nM] |
| --- | --- | --- | --- |
| CCC(=O)N[S@]1(=O)=NC(=O)c2ccc3c(c2)N(C[C@@H]2CC[C@H]2[C@@H](OCCN2CCOCC2)/C=C/CCC1)C[C@@]1(CCCc2cc(Cl)ccc21)CO3 [Example 66] | 2.7 | 5830 | – |
| CO[C@H]1/C=C/CCC[S@@](=O)(NC(=O)CCc2cncnc2)=NC(=O)c2ccc3c(c2)N(C[C@@H]2CC[C@H]21)C[C@@]1(CCCc2cc(Cl)ccc21)CO3 [Example 53] | 0.2 | – | 388 |
| CO[C@H]1/C=C/C[C@H](C)C[S@@](=O)(NC(=O)c2cc3c(s2)CCOC3)=NC(=O)c2ccc3c(c2)N(C[C@@H]2CC[C@H]21)C[C@@]1(CCCc2cc(Cl)ccc21)CO3 [Example 429] | 0.129 | – | 261 |
